The CheMixHub viscosity set
Where “and” joins values, the source holds several entries; their conditions need not be identical. Equal entries are not always repeated. ± gives the uncertainty stated by the source.

Test: xn = mol fraction of the nth substance listed

CC(C)C(=O)O + O
Conditions | viscosity
293.15 K, 101.33 kPa, x1 = 0.011 | 1.181 ± 0.012 mPa·s
293.15 K, 101.33 kPa, x1 = 0.0222 | 1.448 ± 0.014 mPa·s
293.15 K, 101.33 kPa, x1 = 0.0348 | 1.558 ± 0.016 mPa·s
293.15 K, 101.33 kPa, x1 = 0.0486 | 1.779 ± 0.018 mPa·s
299.35 K, 101.33 kPa, x1 = 0.11 | 2.904 ± 0.021 mPa·s
299.36 K, 101.33 kPa, x1 = 0.11 | 2.896 ± 0.021 mPa·s
299.37 K, 101.33 kPa, x1 = 0.11 | 2.882 ± 0.021 mPa·s
299.38 K, 101.33 kPa, x1 = 0.11 | 2.868 ± 0.021 mPa·s
299.39 K, 101.33 kPa, x1 = 0.11 | 2.846 ± 0.021 mPa·s and 2.836 ± 0.021 mPa·s
299.4 K, 101.33 kPa, x1 = 0.11 | 2.813 ± 0.021 mPa·s
299.43 K, 101.33 kPa, x1 = 0.11 | 2.767 ± 0.02 mPa·s
299.45 K, 101.33 kPa, x1 = 0.11 | 2.751 ± 0.02 mPa·s
299.48 K, 101.33 kPa, x1 = 0.11 | 2.711 ± 0.02 mPa·s
299.5 K, 101.33 kPa, x1 = 0.11 | 2.69 ± 0.02 mPa·s
299.56 K, 101.33 kPa, x1 = 0.11 | 2.645 ± 0.02 mPa·s
299.64 K, 101.33 kPa, x1 = 0.11 | 2.606 ± 0.019 mPa·s
299.72 K, 101.33 kPa, x1 = 0.11 | 2.571 ± 0.019 mPa·s
299.85 K, 101.33 kPa, x1 = 0.11 | 2.541 ± 0.019 mPa·s
299.96 K, 101.33 kPa, x1 = 0.11 | 2.506 ± 0.019 mPa·s
300.15 K, 101.33 kPa, x1 = 0.11 | 2.466 ± 0.018 mPa·s
300.4 K, 101.33 kPa, x1 = 0.11 | 2.422 ± 0.018 mPa·s
301.15 K, 101.33 kPa, x1 = 0.11 | 2.317 ± 0.017 mPa·s
302.15 K, 101 kPa, x1 = 0.0106 | 0.9416 ± 0.0059 mPa·s
302.15 K, 101 kPa, x1 = 0.0222 | 1.066 ± 0.0065 mPa·s
302.15 K, 101 kPa, x1 = 0.0348 | 1.21 ± 0.0073 mPa·s
302.15 K, 101 kPa, x1 = 0.0486 | 1.388 ± 0.0083 mPa·s
302.15 K, 101 kPa, x1 = 0.0545 | 1.469 ± 0.0087 mPa·s
302.15 K, 101 kPa, x1 = 0.0638 | 1.6 ± 0.0094 mPa·s
302.15 K, 101 kPa, x1 = 0.0737 | 1.74 ± 0.01 mPa·s
302.15 K, 101 kPa, x1 = 0.0806 | 1.837 ± 0.011 mPa·s
302.15 K, 101 kPa, x1 = 0.0915 | 1.999 ± 0.012 mPa·s
302.15 K, 101 kPa, x1 = 0.1114 | 2.213 ± 0.013 mPa·s
302.15 K, 101 kPa, x1 = 0.12 | 2.285 ± 0.013 mPa·s
302.15 K, 101 kPa, x1 = 0.129 | 2.348 ± 0.013 mPa·s
302.15 K, 101 kPa, x1 = 0.1433 | 2.423 ± 0.014 mPa·s
302.15 K, 101 kPa, x1 = 0.1698 | 2.499 ± 0.014 mPa·s
302.15 K, 101 kPa, x1 = 0.1999 | 2.568 ± 0.015 mPa·s
302.15 K, 101 kPa, x1 = 0.2347 | 2.614 ± 0.015 mPa·s
302.15 K, 101 kPa, x1 = 0.323 | 2.632 ± 0.015 mPa·s
302.15 K, 101 kPa, x1 = 0.4499 | 2.493 ± 0.014 mPa·s
302.15 K, 101 kPa, x1 = 0.4996 | 2.403 ± 0.014 mPa·s
302.15 K, 101 kPa, x1 = 0.7953 | 1.685 ± 0.0098 mPa·s
302.15 K, 101 kPa, x1 = 0.9529 | 1.27 ± 0.0076 mPa·s
302.27 K, 101.33 kPa, x1 = 0.11 | 2.211 ± 0.017 mPa·s
303.11 K, 101.33 kPa, x1 = 0.11 | 2.144 ± 0.016 mPa·s
303.15 K, 101.33 kPa, x2 = 0.352 | 1.51 ± 0.04 mPa·s
303.15 K, 101.33 kPa, x2 = 0.55 | 2.12 ± 0.056 mPa·s
303.15 K, 101.33 kPa, x2 = 0.677 | 2.43 ± 0.064 mPa·s
303.15 K, 101.33 kPa, x2 = 0.765 | 2.51 ± 0.066 mPa·s
303.15 K, 101.33 kPa, x2 = 0.83 | 2.42 ± 0.064 mPa·s
303.15 K, 101.33 kPa, x2 = 0.88 | 2 ± 0.053 mPa·s
303.15 K, 101.33 kPa, x2 = 0.919 | 1.58 ± 0.042 mPa·s
303.15 K, 101.33 kPa, x2 = 0.951 | 1.28 ± 0.034 mPa·s
303.15 K, 101.33 kPa, x2 = 0.978 | 1.02 ± 0.027 mPa·s
304.12 K, 101.33 kPa, x1 = 0.11 | 2.07 ± 0.016 mPa·s
305.07 K, 101.33 kPa, x1 = 0.11 | 2.003 ± 0.015 mPa·s
305.15 K, 101 kPa, x1 = 0.0106 | 0.8833 ± 0.0056 mPa·s
305.15 K, 101 kPa, x1 = 0.0222 | 0.9974 ± 0.0062 mPa·s
305.15 K, 101 kPa, x1 = 0.0348 | 1.127 ± 0.0069 mPa·s
305.15 K, 101 kPa, x1 = 0.0486 | 1.284 ± 0.0077 mPa·s
305.15 K, 101 kPa, x1 = 0.0545 | 1.355 ± 0.0081 mPa·s
305.15 K, 101 kPa, x1 = 0.0638 | 1.469 ± 0.0087 mPa·s
305.15 K, 101 kPa, x1 = 0.0737 | 1.59 ± 0.0094 mPa·s
305.15 K, 101 kPa, x1 = 0.0806 | 1.673 ± 0.0098 mPa·s
305.15 K, 101 kPa, x1 = 0.0915 | 1.799 ± 0.01 mPa·s
305.15 K, 101 kPa, x1 = 0.1114 | 1.993 ± 0.011 mPa·s
305.15 K, 101 kPa, x1 = 0.12 | 2.06 ± 0.012 mPa·s
305.15 K, 101 kPa, x1 = 0.129 | 2.117 ± 0.012 mPa·s
305.15 K, 101 kPa, x1 = 0.1433 | 2.18 ± 0.013 mPa·s
305.15 K, 101 kPa, x1 = 0.1698 | 2.271 ± 0.013 mPa·s
305.15 K, 101 kPa, x1 = 0.1999 | 2.339 ± 0.013 mPa·s
305.15 K, 101 kPa, x1 = 0.2347 | 2.388 ± 0.014 mPa·s
305.15 K, 101 kPa, x1 = 0.323 | 2.423 ± 0.014 mPa·s
305.15 K, 101 kPa, x1 = 0.4499 | 2.32 ± 0.013 mPa·s
305.15 K, 101 kPa, x1 = 0.4996 | 2.244 ± 0.013 mPa·s
305.15 K, 101 kPa, x1 = 0.6404 | 1.959 ± 0.011 mPa·s
305.15 K, 101 kPa, x1 = 0.7953 | 1.597 ± 0.0094 mPa·s
305.15 K, 101 kPa, x1 = 0.9529 | 1.214 ± 0.0073 mPa·s
306.72 K, 101.33 kPa, x1 = 0.11 | 1.907 ± 0.014 mPa·s
307.67 K, 101.33 kPa, x1 = 0.11 | 1.855 ± 0.014 mPa·s
308.15 K, 101 kPa, x1 = 0.0106 | 0.8203 ± 0.0052 mPa·s
308.15 K, 101 kPa, x1 = 0.0222 | 0.9263 ± 0.0058 mPa·s
308.15 K, 101 kPa, x1 = 0.0348 | 1.049 ± 0.0065 mPa·s
308.15 K, 101 kPa, x1 = 0.0486 | 1.194 ± 0.0072 mPa·s
308.15 K, 101 kPa, x1 = 0.0545 | 1.259 ± 0.0076 mPa·s
308.15 K, 101 kPa, x1 = 0.0638 | 1.361 ± 0.0082 mPa·s
308.15 K, 101 kPa, x1 = 0.0737 | 1.468 ± 0.0087 mPa·s
308.15 K, 101 kPa, x1 = 0.0806 | 1.541 ± 0.0091 mPa·s
308.15 K, 101 kPa, x1 = 0.0915 | 1.651 ± 0.0097 mPa·s
308.15 K, 101 kPa, x1 = 0.1114 | 1.827 ± 0.011 mPa·s
308.15 K, 101 kPa, x1 = 0.12 | 1.878 ± 0.011 mPa·s
308.15 K, 101 kPa, x1 = 0.129 | 1.927 ± 0.011 mPa·s
308.15 K, 101 kPa, x1 = 0.1433 | 1.99 ± 0.011 mPa·s
308.15 K, 101 kPa, x1 = 0.1698 | 2.077 ± 0.012 mPa·s
308.15 K, 101 kPa, x1 = 0.1999 | 2.144 ± 0.012 mPa·s
308.15 K, 101 kPa, x1 = 0.2347 | 2.195 ± 0.013 mPa·s
308.15 K, 101 kPa, x1 = 0.323 | 2.24 ± 0.013 mPa·s
308.15 K, 101 kPa, x1 = 0.4499 | 2.156 ± 0.012 mPa·s
308.15 K, 101 kPa, x1 = 0.4996 | 2.089 ± 0.012 mPa·s
308.15 K, 101 kPa, x1 = 0.6404 | 1.837 ± 0.011 mPa·s
308.15 K, 101 kPa, x1 = 0.7953 | 1.504 ± 0.0089 mPa·s
308.15 K, 101 kPa, x1 = 0.9529 | 1.155 ± 0.007 mPa·s
311.15 K, 101 kPa, x1 = 0.0106 | 0.765 ± 0.0049 mPa·s
311.15 K, 101 kPa, x1 = 0.0222 | 0.8626 ± 0.0054 mPa·s
313.15 K, 101.33 kPa, x1 = 0.011 | 0.767 ± 0.0077 mPa·s
313.15 K, 101.33 kPa, x1 = 0.0222 | 0.907 ± 0.0091 mPa·s
313.15 K, 101.33 kPa, x1 = 0.0348 | 0.965 ± 0.0097 mPa·s
313.15 K, 101.33 kPa, x1 = 0.0486 | 1.094 ± 0.011 mPa·s
